From BindingDB's records for patent US10800778 (Entasis Therapeutics Limited, 2020)

Tests used:
Beta-lactamase = Beta-lactamase (Klebsiella pneumoniae, UniProt Q6XEC0); assay: Inhibition of Beta-Lactamase Enzymes
Experimental: (§1) A buffer consisting of 0.1 M sodium phosphate (pH 7.0), 10 mM NaHCO3, and 0.005% Triton X-100 was used for all enzymes. The chromogenic substrate nitrocefin (SynGene, Bangalore, India) was used at 100 μM. Enzyme activity was monitored by the 490 nm absorbance increase upon nitrocefin hydrolysis. Assays were performed in clear polystyrene 384-well plates (Greiner Bio-One, Monroe, N.C.). Absorbance was measured for 1 hour at 30-s intervals using a Spectramax absorbance plate reader (Molecular Devices, Sunnyvale, Calif.). Measurement of beta-lactamase inhibition by INHIBITOR employed serial 3-fold dilutions of the inhibitor in assay buffer, ranging from 100 μM to 62.7 pM. A background absorbance progress curve for a control lacking enzyme and inhibitor was subtracted from each progress curve.

Beta-lactamase TEM = Beta-lactamase TEM (Escherichia coli, UniProt P62593); assay: Inhibition of Beta-Lactamase Enzymes
Experimental: as §1

Chain of Beta-lactamase (Q6XEC0 whole entry): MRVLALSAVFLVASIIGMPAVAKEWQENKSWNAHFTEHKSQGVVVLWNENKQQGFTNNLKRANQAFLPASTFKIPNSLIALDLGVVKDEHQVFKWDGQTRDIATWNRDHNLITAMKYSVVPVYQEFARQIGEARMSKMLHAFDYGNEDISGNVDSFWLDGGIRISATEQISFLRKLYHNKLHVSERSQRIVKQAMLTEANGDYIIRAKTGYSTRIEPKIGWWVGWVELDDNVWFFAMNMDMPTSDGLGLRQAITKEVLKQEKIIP
Chain of Beta-lactamase TEM (P62593 whole entry): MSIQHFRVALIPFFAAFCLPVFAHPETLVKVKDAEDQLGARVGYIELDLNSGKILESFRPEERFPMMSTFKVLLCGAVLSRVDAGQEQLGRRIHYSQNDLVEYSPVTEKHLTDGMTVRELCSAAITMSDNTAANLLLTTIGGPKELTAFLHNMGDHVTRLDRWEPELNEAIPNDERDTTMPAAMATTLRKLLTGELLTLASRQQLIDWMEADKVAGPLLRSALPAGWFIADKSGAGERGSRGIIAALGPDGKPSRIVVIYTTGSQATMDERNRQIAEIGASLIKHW

CC1=C[C@@H]2CN(C(=O)N2O[C@@H](F)C(=O)O)[C@@H]1C(=O)NOC[C@@H]1CCCN1 [US10800778, Example 62]
IC50 (Beta-lactamase): 870 nM | IC50 (Beta-lactamase TEM): 210 nM
